Where a SMILES comes first, the peptide text is derived from it. Bridges are numbered along the chain shown (N, C = ends). [ ]: non-standard residue; d: D form. Pro(trans-4-F) = O=C(O)[C@@H]1C[C@@H](F)CN1; Pro(cis-4-F) = O=C(O)[C@@H]1C[C@H](F)CN1; Pro(4,4-F2) = O=C(O)[C@@H]1CC(F)(F)CN1; Hyp = O=C(O)[C@@H]1C[C@@H](O)CN1; Pen = CC(C)(S)[C@H](N)C(=O)O; Tle = CC(C)(C)[C@H](N)C(=O)O; dDab = NCC[C@@H](N)C(=O)O; Dab = NCC[C@H](N)C(=O)O; Abu = CC[C@H](N)C(=O)O
Legend:
Type in all cases: cell-based
[1] = tested on: Escherichia coli ATCC 25922; details: ATCC 25922
Experimental: (§1) Lyophilized peptides were weighed on a Microbalance (Mettler MT5) and dissolved in sterile water to a final concentration of 1 mg/mL. Stock solutions were kept at +4° C., light protected.
(§2) The selective antimicrobial activities of the peptides were determined in 96-well plates (Greiner, polystyrene) by the standard CLSI broth microdilution method (Clinical and Laboratory Standards Institute. Methods for Dilution Antimicrobial Susceptibility Tests for Bacteria That Grow Aerobically; Approved Standard-Ninth Edition. CLSI document M07-A9 (ISBN 1-56238-783-9 [Print]; ISBN 1-56238-784-7 [Electronic]). Clinical and Laboratory Standards Institute, 950 West Valley Road, Suite 2500, Wayne, Pennsylvania 19087, USA, 2012) with slight modifications.
(§3) Colonies of the microorganisms were diluted in saline (0.85%, NaCl) and adjusted using a McFarland reader (bioMérieux SA, Marcy-l'Etoile, France) to 0.5 McFarland standard. Subsequently, the bacterial suspension was diluted in Mueller-Hinton II (MHII, cation adjusted) broth to give approximately 5×10^5 colony forming units (CFU/mL).
(§4) Inocula of the microorganisms were diluted into Mueller-Hinton II (MH, cation adjusted) broth and compared with a 0.5 McFarland standard to give appr. 10^6 colony forming units (CFU)/mL. Aliquots (90 μl) of inoculate were added to 10 μl of water+P-80 (Polysorbate 80, 0.002% final concentration) containing the peptide in serial two-fold dilutions at 10 fold final concentration. The following microorganisms were used to determine antibiotic selectivity of the peptides: Escherichia coli ATCC 25922, Escherichia coli MCR-1 Af 45 and Klebsiella pneumoniae SSI3010. Antimicrobial activities of the peptides were expressed as the minimal inhibitory concentration (MIC) in μg/mL at which no visible growth was observed after 18-20 hours of incubation at 35° C.

[2] = tested on: Escherichia coli MCR-1 Af 45; details: MCR-1 Af 45
Experimental: as §1, §2, §3, §4

[3] = tested on: Klebsiella pneumoniae SSI3010; details: SSI3010
Experimental: as §1, §2, §3, §4

[4] = tested on: human red blood cells (hRBC); details: red cells of human, 1 h, 200 μg/mL
Experimental: Lyophilized peptides were weighed on a Microbalance (Mettler MT5) and dissolved in sterile water to a final concentration of 1 mg/mL. Stock solutions were kept at +4° C., light protected. The peptides were tested for their hemolytic activity against human red blood cells (hRBC). Fresh hRBC were washed three times with phosphate buffered saline (PBS) and centrifuged for 5 min at 3000×g. Compounds (200 μg/mL) were incubated with 20% hRBC (v/v) for 1 h at 37° C. and shaking at 300 rpm. A value of 0% and 100% cell lyses, respectively, was determined by incubation of hRBC in the presence of PBS and 2.5% Triton X-100 in H2O, respectively. The samples were centrifuged, the supernatants were 8-fold diluted in PBS buffer and the optical densities (OD) were measured at 540 nm. The 100% lyses value (OD540H2O) gave an OD540 of approximately 0.5-1.0. Percent hemolysis was calculated as follows: (OD540peptide/OD540H2O)×100%.

SMILES | Escherichia coli ATCC 25922 MIC [1] [mg/L] | Escherichia coli MCR-1 Af45 MIC [2] [mg/L] | Klebsiella pneumoniae SSI3010 MIC [3] [mg/L] | Hemolysis at 0.2 g/L [4] [%]
CC[C@H](C)[C@H](NC(=O)[C@@H]1CCCN1C(=O)[C@@H](N)C(C)C)C(=O)N[C@@H]1C(=O)N[C@@H](Cc2ccc(O)cc2)C(=O)N[C@@H]([C@@H](C)O)C(=O)N[C@@H](CC(N)=O)C(=O)N[C@@H](CCCNC(=N)N)C(=O)N[C@@H](CCN)C(=O)N[C@@H]([C@@H](C)O)C(=O)N[C@H](CCN)C(=O)N[C@@H](CCCCN)C(=O)N[C@@H](CCN)C(=O)N[C@@H](CCN)C(=O)N[C@H](C(=O)N[C@@H](Cc2ccc(O)cc2)C(=O)O)CSSC1(C)C [Example 5, Val-Pro-Ile-Pen-Tyr-Thr-Asn-Arg-Dab-Thr-^DDab-Lys-Dab-Dab-Cys-Tyr] (H-VPI[Pen]YTNR[Dab]T[dDab]K[Dab][Dab]CY-OH; disulfide 4-15) | 0.125 | 0.0625 | 0.25 | <1
CC[C@H](C)[C@H](NC(=O)[C@@H]1C[C@@H](OC)CN1C(=O)[C@@H](N)C(C)C)C(=O)N[C@@H]1C(=O)N[C@@H](Cc2ccc(O)cc2)C(=O)N[C@@H]([C@@H](C)O)C(=O)N[C@@H](CC(N)=O)C(=O)N[C@@H](CCCNC(=N)N)C(=O)N[C@@H](CCN)C(=O)N[C@@H]([C@@H](C)O)C(=O)N[C@H](CCN)C(=O)N[C@@H](CCCCN)C(=O)N[C@@H](CCN)C(=O)N[C@@H](CCN)C(=O)N[C@H](C(=O)N[C@@H](Cc2ccc(O)cc2)C(=O)O)CSSC1(C)C [Example 6, Val-Pro((4R)OMe)-Ile-Pen-Tyr-Thr-Asn-Arg-Dab-Thr-^DDab-Lys-Dab-Dab-Cys-Tyr] (H-V[Hyp](Me)I[Pen]YTNR[Dab]T[dDab]K[Dab][Dab]CY-OH; disulfide 4-15) | 0.125 | 0.125 | 0.25 | <1
CC[C@H](C)[C@H](NC(=O)[C@@H]1C[C@H](F)CN1C(=O)[C@@H](N)C(C)C)C(=O)N[C@@H]1C(=O)N[C@@H](Cc2ccc(O)cc2)C(=O)N[C@@H]([C@@H](C)O)C(=O)N[C@@H](CC(N)=O)C(=O)N[C@@H](CCCNC(=N)N)C(=O)N[C@@H](CCN)C(=O)N[C@@H]([C@@H](C)O)C(=O)N[C@H](CCN)C(=O)N[C@@H](CCCCN)C(=O)N[C@@H](CCN)C(=O)N[C@@H](CCN)C(=O)N[C@H](C(=O)N[C@@H](Cc2ccc(O)cc2)C(=O)O)CSSC1(C)C [Example 7, Val-Pro((4S)F)-Ile-Pen-Tyr-Thr-Asn-Arg-Dab-Thr-^DDab-Lys-Dab-Dab-Cys-Tyr] (H-V[Pro(cis-4-F)]I[Pen]YTNR[Dab]T[dDab]K[Dab][Dab]CY-OH; disulfide 4-15) | 0.125 | 0.125 | 0.25 | <1
CC[C@H](C)[C@H](NC(=O)[C@@H]1C[C@@H](F)CN1C(=O)[C@@H](N)C(C)C)C(=O)N[C@@H]1C(=O)N[C@@H](Cc2ccc(O)cc2)C(=O)N[C@@H]([C@@H](C)O)C(=O)N[C@@H](CC(N)=O)C(=O)N[C@@H](CCCNC(=N)N)C(=O)N[C@@H](CCN)C(=O)N[C@@H]([C@@H](C)O)C(=O)N[C@H](CCN)C(=O)N[C@@H](CCCCN)C(=O)N[C@@H](CCN)C(=O)N[C@@H](CCN)C(=O)N[C@H](C(=O)N[C@@H](Cc2ccc(O)cc2)C(=O)O)CSSC1(C)C [Example 8, Val-Pro((4R)F)-Ile-Pen-Tyr-Thr-Asn-Arg-Dab-Thr-^DDab-Lys-Dab-Dab-Cys-Tyr] (H-V[Pro(trans-4-F)]I[Pen]YTNR[Dab]T[dDab]K[Dab][Dab]CY-OH; disulfide 4-15) | 0.125 | 0.0625 | 0.25 | <1
CC[C@H](C)[C@H](NC(=O)[C@@H]1CC(F)(F)CN1C(=O)[C@@H](N)C(C)C)C(=O)N[C@@H]1C(=O)N[C@@H](Cc2ccc(O)cc2)C(=O)N[C@@H]([C@@H](C)O)C(=O)N[C@@H](CC(N)=O)C(=O)N[C@@H](CCCNC(=N)N)C(=O)N[C@@H](CCN)C(=O)N[C@@H]([C@@H](C)O)C(=O)N[C@H](CCN)C(=O)N[C@@H](CCCCN)C(=O)N[C@@H](CCN)C(=O)N[C@@H](CCN)C(=O)N[C@H](C(=O)N[C@@H](Cc2ccc(O)cc2)C(=O)O)CSSC1(C)C [Example 9, Val-Pro(4,4F2)-Ile-Pen-Tyr-Thr-Asn-Arg-Dab-Thr-^DDab-Lys-Dab-Dab-Cys-Tyr] (H-V[Pro(4,4-F2)]I[Pen]YTNR[Dab]T[dDab]K[Dab][Dab]CY-OH; disulfide 4-15) | 0.125 | 0.0625 | 0.25 | <1

The next lines start with results.

Escherichia coli ATCC 25922 MIC [1] [mg/L] | Escherichia coli MCR-1 Af45 MIC [2] [mg/L] | Klebsiella pneumoniae SSI3010 MIC [3] [mg/L] | SMILES | Hemolysis at 0.2 g/L [4] [%]
0.125 | 0.03125 | 0.25 | CC[C@H](C)[C@H](NC(=O)[C@@H]1C[C@@H](O)CN1C(=O)[C@@H](N)C(C)C)C(=O)N[C@@H]1C(=O)N[C@@H](Cc2ccc(O)cc2)C(=O)N[C@@H](CO)C(=O)N[C@@H](CC(N)=O)C(=O)N[C@@H](CCCNC(=N)N)C(=O)N[C@@H](CCN)C(=O)N[C@@H]([C@@H](C)O)C(=O)N[C@H](CCN)C(=O)N[C@@H](CCCCN)C(=O)N[C@@H](CCN)C(=O)N[C@@H](CCN)C(=O)N[C@H](C(=O)N[C@@H](Cc2ccc(O)cc2)C(=O)O)CSSC1(C)C [Example 1, Val-Hyp-Ile-Pen-Tyr-Ser-Asn-Arg-Dab-Thr-^DDab-Lys-Dab-Dab-Cys-Tyr] (H-V[Hyp]I[Pen]YSNR[Dab]T[dDab]K[Dab][Dab]CY-OH; disulfide 4-15) | <1
0.25 | 0.125 | 0.25 | CC[C@H](N)C(=O)N1C[C@H](O)C[C@H]1C(=O)N[C@H](C(=O)N[C@@H]1C(=O)N[C@@H](Cc2ccc(O)cc2)C(=O)N[C@@H](CO)C(=O)N[C@@H](CC(N)=O)C(=O)N[C@@H](CCCNC(=N)N)C(=O)N[C@@H](CCN)C(=O)N[C@@H]([C@@H](C)O)C(=O)N[C@H](CCN)C(=O)N[C@@H](CCCCN)C(=O)N[C@@H](CCN)C(=O)N[C@@H](CCN)C(=O)N[C@H](C(=O)N[C@@H](Cc2ccc(O)cc2)C(=O)O)CSSC1(C)C)[C@@H](C)CC [Example 2, Abu-Hyp-Ile-Pen-Tyr-Ser-Asn-Arg-Dab-Thr-^DDab-Lys-Dab-Dab-Cys-Tyr] (H-[Abu][Hyp]I[Pen]YSNR[Dab]T[dDab]K[Dab][Dab]CY-OH; disulfide 4-15) | <1
0.125 | 0.125 | 0.25 | CC[C@H](C)[C@H](NC(=O)[C@@H]1C[C@@H](O)CN1C(=O)[C@@H](N)C(C)(C)C)C(=O)N[C@@H]1C(=O)N[C@@H](Cc2ccc(O)cc2)C(=O)N[C@@H](CO)C(=O)N[C@@H](CC(N)=O)C(=O)N[C@@H](CCCNC(=N)N)C(=O)N[C@@H](CCN)C(=O)N[C@@H]([C@@H](C)O)C(=O)N[C@H](CCN)C(=O)N[C@@H](CCCCN)C(=O)N[C@@H](CCN)C(=O)N[C@@H](CCN)C(=O)N[C@H](C(=O)N[C@@H](Cc2ccc(O)cc2)C(=O)O)CSSC1(C)C [Example 3, tBuGly-Hyp-Ile-Pen-Tyr-Ser-Asn-Arg-Dab-Thr-^DDab-Lys-Dab-Dab-Cys-Tyr] (H-[Tle][Hyp]I[Pen]YSNR[Dab]T[dDab]K[Dab][Dab]CY-OH; disulfide 4-15) | <1
0.0625 | 0.0625 | 0.125 | CC[C@H](C)[C@H](NC(=O)[C@@H]1CCCN1C(=O)[C@@H](N)C(C)C)C(=O)N[C@@H]1C(=O)N[C@@H](Cc2ccc(O)cc2)C(=O)N[C@@H](CO)C(=O)N[C@@H](CC(N)=O)C(=O)N[C@@H](CCCNC(=N)N)C(=O)N[C@@H](CCN)C(=O)N[C@@H]([C@@H](C)O)C(=O)N[C@H](CCN)C(=O)N[C@@H](CCCCN)C(=O)N[C@@H](CCN)C(=O)N[C@@H](CCN)C(=O)N[C@H](C(=O)N[C@@H](Cc2ccc(O)cc2)C(=O)O)CSSC1(C)C [Example 4, Val-Pro-Ile-Pen-Tyr-Ser-Asn-Arg-Dab-Thr-^DDab-Lys-Dab-Dab-Cys-Tyr] (H-VPI[Pen]YSNR[Dab]T[dDab]K[Dab][Dab]CY-OH; disulfide 4-15) | <1
